The results in this text go back to patent US20050182002A1, “Agents which interact with a serotonin transporter for the treatment of cancer” (priority 2002, published 2005).

Like-named read-outs stand apart in the source and are kept apart here.

Series [1] relates to biopsylike BL cells. As to the kind of experiment: PARP-1 cleavage. In kind it is cell-based. The note with it: 20 μM fluoxetine.
Series [2] has as its system L3055 cells. As to the kind of experiment: Caspase activity (FAM-VAD-FMK, FACS). The note with it: single dose for 24 hours; fluoxetine 10 μM, paroxetine 10 μM, citalopram 100 μM. In kind it is cell-based. As to the method:
Caspase activity was detected using the CaspaTag Caspase Activity Kit (Intergen, Oxford, UK). Cells cultured under the conditions indicated below were harvested into 300 μl of culture medium at a cell density of 10^6cells/ml, followed by the addition of […] of a 30×working solution of FAM-VAD-FMK (a carboxy fluorescent tagged caspase inhibitor) (Intergen Co., USA). Cells were then incubated for 1 hr at 37° C. under 5% CO2 while protecting the tubes from light. At the end of the incubation, they were washed twice in 2 ml of 1×washing buffer, followed by addition of 2 μl of PI to distinguish dead cells from live cells, then analysed on an EPICS XL-MCL flow cytometer or by confocal microscopy. For the latter, treated cells were harvested into 300 μl of culture medium containing 10 μl of FAM-VAD-FMK before incubating for 1 hr under the conditions described above. Next, 1.5 μl of Hoechst 33342 stain was added for 5 min, and cells were washed twice in 2 ml of 1×washing buffer following the addition of 1 μl of PI.

Series [3] relates to actively cycling tonsilar B cells. As to the kind of experiment: DNA synthesis in actively cycling tonsilar B cells. The format is cell-based. As to conditions: overnight fluoxetine up to 20 μM after 2 days stimulation with SAC (± CD40L) or PMA (± ionomycin).
The test system of series [4] is biopsylike BL cells. As to the kind of experiment: Real-time RT-PCR gene expression. The format is cell-based. As to conditions: data not shown. The text has this:
BL is characterised by translocations of one c-myc allele to one of the immunoglobulin loci and the extraordinarily high growth rate that characterises these tumours reflects the pro-proliferative actions of the translocated gene. Despite its hallmark translocation to immunoglobulin loci, the BL-associated constitutive expression of c-myc remains dependent on the binding of the recognised c-myc transcription factor Nm23-H2 to a PuF site within the regulatory sequence of the translocated gene.
(Real-time PCR tracks product formation cycle by cycle.)

Series [5] relates to L3055 cells. As to the kind of experiment: Intracellular free Ca2+. In kind it is cell-based. The source says: The increase in intracellular free Ca^2+ is known to be an important step in the induction of apoptosis.
Series [6] has as its system L3055 cells. As to the kind of experiment: Cell cycle analysis (propidium iodide, flow cytometry). In kind it is cell-based. As to conditions: 24 hr; each at its maximal concentration (5-HT 150 μM, fluoxetine 10 μM, anti-μ chain antibody 10 μg/ml). As for the experimental part:
Cells cultured under conditions indicated below were harvested into 100 μl of 1×PBS followed by 400 μl cell cycle buffer containing Triton X-100 and propidium iodide and left to incubate at 4° C. for 1 hr to allow staining of DNA. The degree of fluorescence emitted by bound PI is directly proportional to the amount of DNA in each cell and was measured by flow cytometry as previously described (MacDonald I, et al. Blood (1996); 87:1147-1154). Results are expressed as percentage of viable cells residing in each phase of the cycle.
In general terms: A flow cytometer gives signals particle by particle.

Series [7] deals with normal peripheral blood mononuclear cells (PBMC). The note with it: 24 h. The text has this:
Patients on SSRI's for depression sustain their circulating levels for months on repeated administrations. Also, circulating levels are believed to represent a gross underestimation of the accumulation of SSRI in body tissues. The lymphoma are, by definition, tumours of lymphoid tissues (e.g. lymph nodes).

Series [8] has as its system non-BL lines Nalm-6, RPMI 8226, Jurkat, J10, and CEM. As to the kind of experiment: DNA synthesis (3H-Thymidine incorporation) in non-BL lines. In kind it is cell-based. As to conditions: data not shown.
Series [9] has as its system L3055 cells. As to the kind of experiment: Syto 16 / propidium iodide staining (viable, apoptotic, necrotic). In kind it is cell-based. As to the method: Changes in the viability of cells cultured under conditions indicated below were quantified by assessment of forward and 90° (side) light scatter of cells as previously described (Dive C, et al. Biochimica Biophysica Acta (1992); 1133:275-285) using an EPICS XL-MCL flow cytometer (Beckman Coulter, Miami, Fla., USA). Prior to analysis, cells were harvested into polythene FACS tubes, and fixed at 4° C. in 400 μl of FACS buffer [PBS with 5% NGS and 2% Formaldehyde] (BDH/MERCK). Cells were gated in two populations (viable and dead) according to their forward and side light scatter. Viability was expressed as a percentage of the total number of cells residing in the viable and non-viable gates. Cells were also analysed according to Schuurhuis et al (Schuurhuis G J, et al. Exp. Haematol. (1997); 25:754-759) in order to assess the percentages within treated populations of those that were viable, apoptotic, or necrotic. Syto 16 was added at a concentration of 250 nM in PBS to 500,000 cells and incubated at RT for 30 min, at which time 5 μg/ml propidium iodide (PI) was added. Samples were then analysed immediately by FACS and a 2D plot generated of syto 16 fluorescence versus PI fluorescence: syto 16 is taken up only by viable cells whereas Pi exclusively enters necrotic cells—syto 16^−ve/PI^−ve cells are deemed apoptotic.

Series [10] deals with L3055 BL cells. As to the kind of experiment: TUNEL DNA strand breaks, FACS. The format is cell-based. As to conditions: fluoxetine 20 μM, 17 h, 10^6/ml; Means ± SE of 3; control 17.8 ± 3.7. The text has this:
Neither BL cells nor their normal germinal centre B cell equivalents tended to produce the extensive “DNA ladders” that can be seen as a result of DNA fragmentation when other cells (e.g. thymocytes) undergo apoptosis.

For series [11], the system named is L3055 BL cells. As to the kind of experiment: DNA synthesis by [3H]-thymidine incorporation in L3055 cells. The format is cell-based. As to the method:
DNA synthesis was determined by measuring ^3H-thymidine ([^3H]Tdr; Amersham, UK) incorporation into cellular DNA. Cells were cultured in 200 μL of supplemented medium at densities and for times indicated below in flat-bottomed, 96-well tissue culture plates (Becton Dickinson, Oxford, U K) then pulsed for the final 4 h with 50 μl of 10 μCi/ml [^3H]Tdr before harvesting on a Skatron cell harvester (Helis Bio Ltd, Newmarket, UK).
(Incorporation of labelled thymidine or its analogues reports DNA synthesis.)

The test system of series [12] is L3055 BL cells. As to the kind of experiment: Annexin V binding (phosphatidylserine exposure), FACS. The format is cell-based. As to conditions: fluoxetine 20 μM, 17 h, 10^6/ml, Means ± SE of 3. The text has this: Annexin V binding to phosphatidylserine exposed on the outer leaflet of cells to signal for phagocytic engulfment is another commonly used measure of programmed death although caution should be applied when using as a sole indicator for assessing apoptosis in B cells.

On to `CNCCC(Oc1ccc(C(F)(F)F)cc1)c1ccccc1` (stereo not shown) [fluoxetine], for which the “PARP-1 cleavage (in words)” value in the series on biopsylike BL cells [1] is “extensive PARP-1 cleavage”. In addition, in the series on L3055 cells [2], the “effect on number of cells showing caspase activity (in words)” value is “significant effect on the numbers of cells showing caspase activity”. Further, the “inhibition of DNA synthesis in actively cycling B cells (in words)” value in series [3] is “Little inhibition of DNA synthesis”. In addition, the “reduction in levels of c-myc” value with biopsylike BL cells [4] (6 h exposure to fluoxetine) is ~60%. For the same compound, the “reduction in levels of nm23-H2” value in the series with biopsylike BL cells [4] (6 h exposure to fluoxetine) is listed as ~60%. Besides, the “decrease in the expression of nm23-H1 mRNA” value in the series with biopsylike BL cells [4] (fluoxetine) worked out at 75%. The “basal Ca2+ (in words)” value in the series on L3055 cells [5] (data not shown) is recorded as “increase in basal Ca^2+”. In the series on L3055 cells [5] (fluoxetine concentration range (FIG. 23)), the “levels of intracellular free Ca2+ (in words)” value is given as “sustained increase in the levels of intracellular free Ca^2+”. The “cell cycle status (in words)” value with L3055 cells [6] is on record as “accumulation of arresting cells in the G0/G1 compartment”. Besides, the “viability of PBMC” value in series [7] (5 μM) is recorded as 97.3±0.88%; in series [7] (10 μM), 97.3±0.33%. Further, the “level of 3H-Thymidine incorporation in non-BL lines (in words)” value in series [8] is listed as “either no, or only minor reductions”. Moreover, the “lymphoma cells entering apoptosis” value in the series on L3055 cells [9] (fluoxetine 10-15 μM, 24 hours) is given as “about 40%”. The “number of viable cells (syto 16+ve/PI−ve) (in words)” value in the series on L3055 cells [9] (increasing concentrations, 24 hr) is on record as “directly drove the lymphoma cells to die”. Moreover, in the series with L3055 BL cells [10], the “% TUNEL positive” value turned out to be 35.7 ± 7.6%. Further, the “influence of pre-treatment on 5-HT-dependent inhibition of DNA synthesis (in words)” value in the series on L3055 BL cells [11] (cells pre-treated with agent before 5-HT) is “substantially reversed”. Also, the “effect on DNA synthesis (in words)” value in the series with L3055 BL cells [11] (single dose, range of concentrations, [3H]-thymidine incorporation at 24 hr) is reported as “dose dependent inhibitory effect”. Further, in the series on L3055 BL cells [12] (control 3.9 ± 0.2), the “Annexin V binding MFI” value is listed as 26.1 ± 8.4. Moreover, in the series with L3055 BL cells [12] (control 52.3 ± 1.8), the “Annexin V binding % positive” value worked out at 81.1 ± 3.9%.
